Measured values taken from patent US20070197552A1, “Method and composition for treatment of diabetes, hypertension, chronic heart failure and fluid retentive states” (Novo Nordisk A/S, priority 2002, published 2007).
Counter-ions that a name gives are not always drawn. Values belong to the compound of their own block, whether it stands above or below them.

Legend:
[1] = test system: Non-fasted anaesthetised pigs; test: In vivo testing of combination treatment: GLP-1 infusion and iv glucose load under DPP IV inhibition, with and without NEP 24.11 inhibition; parameters: species or system pig
Method: Non-fasted anaesthetised pigs (n=5) were given valine-pyrrolidide (250 μmol/kg; V) to inhibit DPP IV activity throughout the experiment. An intraveneous (iv) infusion of GLP-1 (0.75 pmol/kg/min) was started, during which an iv glucose load (0.2 g/kg over 9 min) was given. 90 min after the end of the first GLP-1 infusion, candoxatril was administered iv (5 mg/kg; C), and the protocol (GLP-1 and glucose infusion) was repeated. In addition, during both GLP-1 infusions, simultaneous blood samples were taken from the carotid artery, the renal, femoral, hepatic and portal veins for determination of arterio-venous GLP-1 concentration differences. Samples were analysed for blood glucose, insulin, glucagon and GLP-1 concentrations.

[2] = anaesthetised pigs, iv GLP-1 infusion

- melting point: 166 to 169 °C
Structure (SMILES): Cn1c(=O)c2c(nc(N3CC[C@H](N)C3)n2Cc2ccccc2)n(C)c1=O (as salt: HCl) [Example 3, (S) 8-(3-Aminopyrrolidin-1-yl)-7-benzyl-1,3-dimethyl-3,7-dihydropurine-2,6-dione]

- melting point: 104 to 117 °C
Structure (SMILES): Cn1c(=O)c2c(nc(N3CC[C@H](N)C3)n2Cc2ccccc2C#N)n(C)c1=O (as salt: HCl) [Example 8, (S) 2-(8-(3-Aminopyrrolidin-1-yl)-1,3-dimethyl-2,6-dioxo-1,2,3,6-tetrahydropurin-7-ylmethyl)benzonitrile]

- melting point: 215 to 217 °C
Structure (SMILES): Cn1c(=O)c2c(nc(N3CC[C@H](N)C3)n2Cc2ccccc2Br)n(C)c1=O (as salt: HCl) [Example 12, (S) 8-(3-Aminopyrrolidin-1-yl)-7-(2-bromobenzyl)-1,3-dimethyl-3,7-dihydropurine-2,6-dione]

Structure (SMILES): CC(C)[C@H](N)C(=O)N1CCCC1 [VP, valine-pyrrolidide]
- plasma levels of GLP-1 (plateau level) ([1]; anaesthetised pigs n=5, iv GLP-1 infusion 0.75 pmol/kg/min, valine-pyrrolidide 250 μmol/kg, candoxatril 5 mg/kg iv, FIG. 1): 73 ± 13 pmol/L
- glucagon concentrations ([1]; anaesthetised pigs, 20 min period following C administration, before start of the GLP-1 infusion, FIG. 4): 9 ± 2 pmol/L
- insulin secretion (AUC27-67 min) ([1]; anaesthetised pigs, GLP-1 and glucose infusion, FIG. 3): 3606 ± 668 pmol·min/L
- renal clearance (organ extraction) of GLP-1 ([1]; anaesthetised pigs, calculated from arterio-venous GLP-1 concentration differences): 58.7±4.3%
- metabolic clearance rate of GLP-1 [1, 2]: 25.1 ± 3.9 mL/min/kg
- plasma t½ of GLP-1 [1, 2]: 2.5 ± 0.2 min
- glucose excursion (ΔAUC2-77 min) ([1]; anaesthetised pigs, iv glucose load 0.2 g/kg over 9 min during GLP-1 infusion, FIG. 2): 59 ± 4 mmol·min/L
- glucose elimination rate ([1]; anaesthetised pigs, iv glucose load during GLP-1 infusion): 6.6±0.5 %/min
